From ChEMBL document CHEMBL3596189, “Perspective: Challenges and opportunities in TB drug discovery from phenotypic screening” (Bioorg Med Chem, 2015)
In brackets after ≈: the same amount, converted by molar mass.

What was measured:
[1] = tested on: Mycobacterium tuberculosis; experiment: Antimycobacterial activity against Mycobacterium tuberculosis assessed as inhibition of bacterial growth measured in glycerol-containing medium; format: functional
[2] = tested on: Mycobacterium tuberculosis; experiment: Antimycobacterial activity against Mycobacterium tuberculosis infected in mouse assessed as reduction of lung bacterial load at 25 mg/kg, po; format: functional
[3] = Systemic clearance in mouse; format: ADME, organism-based; details: in vivo
[4] = Volume of distribution in mouse; format: ADME, organism-based; details: in vivo
[5] = Elimination half life in mouse; format: ADME, organism-based; details: in vivo, read-out: beta t1/2 (converted)
[6] = Oral bioavailability in mouse; format: ADME, organism-based; details: in vivo
[7] = tested on: Mycobacterium tuberculosis; experiment: Antimycobacterial activity against Mycobacterium tuberculosis infected in mouse assessed as log reduction of lung bacterial load at 50 mg/kg administered for 4 weeks; format: functional

Row | Compound | MIC50 [1] [µM] | also measured
1 | Cc1nc2ccccn2c1C(=O)NCc1ccccc1 | 0.2 (≈ 0.0531 µg/mL) | 
2 | Cc1cc(C)c2cc(C(=O)NC3CCCCC3)[nH]c2c1 | 0.8 (≈ 0.216 µg/mL) | 
3 | Cc1ccc([C@H]2C[C@@H](C(F)(F)F)n3ncc(C(=O)NCc4ccc(F)cc4)c3N2)cc1 | 0.2 (≈ 0.0865 µg/mL) | log10cfu [2]: 3.5
4 | CC1(C)CCC(NC(=O)c2cc3c(Cl)cc(Cl)cc3[nH]2)CC1 | 0.02 (≈ 0.00679 µg/mL) | clearance [3]: 18.1 mL/min/kg; Vd [4]: 4.1 L/kg; half-life [5]: 5.1 h; bioavailability [6]: > 50%
5 | CC(=O)Nc1ccc(C)c(Nc2nccn2-c2cc(NC3CC3)ncn2)c1 | 1 (≈ 0.363 µg/mL) | 
6 | Cc1ccc(CNC(=O)c2cnn3c2NC(c2ccccc2)CC3C(F)(F)F)cc1 (stereo unspecified) | 1.9 (≈ 0.787 µg/mL) | 
7 | CC(C)Cc1cc(O)c(-c2ccccc2)c(=O)[nH]1 | 2.2 (≈ 0.535 µg/mL) | 
8 | Cc1ccc(C(=O)N2CCOCC2)cc1Nc1nccn1-c1cc(NC2CC2)ncn1 | 0.04 (≈ 0.0168 µg/mL) | 
9 | Cc1ccc2nc(C)c(C(=O)NCc3ccc(-c4ccncc4)cc3)n2c1 | 0.01 (≈ 0.00356 µg/mL) | log10cfu [7]: 1
10 | CC1(C)CCC(Cc2cc(O)c(-c3ccccc3)c(=O)[nH]2)CC1 | 0.03 (≈ 0.00934 µg/mL) | 
